Test results reported in patent US7914769B2, “Compounds for treating human papillomavirus” (priority 2004, dated 2011).

What was measured:
[1] = molecular target: E6 (Human papillomavirus type 16, UniProt P03126); experiment: E6 inhibition (IC50, assay not specified); format: biochemical
Description: In some embodiments, the interaction of a compound described herein with E6 protein can be assayed in vitro, using routine techniques. In some in vitro assays, the ability of a compound described herein to inhibit the binding of E6 protein to an E6 binding protein can be tested. For example, the E6 protein can be labeled, e.g., radiolabeled, mixed with a compound described herein, and the binding of E6 protein to a binding protein, e.g., E6BP or E6AP, can be determined. Binding efficiency can be calculated as percent input bound minus background. Other in vitro assays can involve indirect measurements of the ability of a compound described herein to inhibit the binding of E6 protein to an E6 binding protein. For example, in vitro p53 degradation experiments can be performed, e.g., as described by Crook et al. (Cell, 67:547-556 (1991)). The IC50 for binding and p53 degradation for the compounds described herein can be tabulated using routine methods.
“IC50” as used herein is the concentration of a compound that produces half-maximal inhibition of protein activity, e.g., E6 activity.

[2] = molecular target: HPV E6 protein (Human papillomavirus type 16, UniProt P03126); experiment: In vitro p53 degradation assay (E6 and p53 made in rabbit reticulocyte lysate)
HPV E6 protein, sequence (P03126 whole entry): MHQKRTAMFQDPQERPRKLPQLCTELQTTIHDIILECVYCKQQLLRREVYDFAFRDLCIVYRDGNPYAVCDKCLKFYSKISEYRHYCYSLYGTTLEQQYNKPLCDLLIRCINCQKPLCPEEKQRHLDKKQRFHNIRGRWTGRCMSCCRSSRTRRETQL

E6, sequence (P03126 whole entry): as above

CCN(C(=O)c1cc2ccccc2cc1O)c1ccccc1
IC50 [1]: 100 to 200 nM | IC50 [2]: 1000 to 2000 nM
